The text below walks through data of article doi:10.1101/157495v1 (biorxiv, 2017).

Experiment [1] has as its target AncCDT-1. Nature of the experiment: isothermal titration calorimetry. Type of experiment: binding, synthetic construct. Particulars: 20 mM Na2HPO4, 150 mM NaCl, pH 7.4, 25 °C; on-column refolded protein. (ITC needs no label: the signal is the heat of the interaction.)
In experiment [2] the target is Ws0279 (Wolinella succinogenes, UniProt Q7MAG0). Nature of the experiment: biochemical. The following applies: read-out: ΔTM.
Ws0279, sequence (Q7MAG0 24-258): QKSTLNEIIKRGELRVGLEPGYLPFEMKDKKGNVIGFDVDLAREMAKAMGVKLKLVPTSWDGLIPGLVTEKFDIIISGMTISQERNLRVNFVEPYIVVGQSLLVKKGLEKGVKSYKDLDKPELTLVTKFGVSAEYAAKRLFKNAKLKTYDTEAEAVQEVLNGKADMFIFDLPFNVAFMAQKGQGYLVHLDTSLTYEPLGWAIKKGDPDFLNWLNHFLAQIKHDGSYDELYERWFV
The target in experiment [3] is T1, Pu1068 (Candidatus Pelagibacter communis, UniProt Q4FLR5).
T1 sequence (Q4FLR5 19-255): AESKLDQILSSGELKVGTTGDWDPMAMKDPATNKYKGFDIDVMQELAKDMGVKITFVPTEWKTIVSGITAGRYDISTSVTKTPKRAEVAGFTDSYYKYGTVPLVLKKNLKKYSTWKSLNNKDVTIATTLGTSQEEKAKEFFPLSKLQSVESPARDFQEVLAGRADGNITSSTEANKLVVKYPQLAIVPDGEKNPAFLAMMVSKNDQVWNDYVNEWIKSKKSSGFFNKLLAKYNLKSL
Kind of experiment: intrinsic tryptophan fluorescence titration. Type of experiment: binding.

With `N=C(N)NCCC[C@H](N)C(=O)O` [L-arginine], in experiment [1], the equilibrium dissociation constant (Kd) was found to be 320 nM.

As to `N[C@@H](Cc1cnc[nH]1)C(=O)O` [L-histidine], binding in experiment [1] was put at a Kd of 2300 nM. `NCCCC[C@H](N)C(=O)O` [L-lysine]: binding in experiment [1] was characterised by a dissociation constant (Kd) of 6700 nM. The ΔTm at 10000 µM in experiment [2] was determined as 7.2 °C. In turn, `NCCC[C@H](N)C(=O)O` [L-ornithine] displayed a Kd in experiment [1] of 1200 nM. The molecule `C[N+]1(CCCS(=O)(=O)[O-])CCCCC1` [NDSB-221, 3-(1-methylpiperidinium-1-yl)propane-1-sulfonate] showed a Kd in experiment [3] of 530 µM.

In general, Kd refers to the free concentration of one partner at which half of the binding sites on the other are occupied at equilibrium, for simple one-to-one binding. A low value points to tighter binding. As usually defined, the ΔTm is the shift of the melting midpoint relative to a reference.
